Results published in patent US6316439A, “Galanthamine derivatives as acetylcholinesterase inhibitors” (priority 1993, dated 2001).
pIC50: −log10 of the molar value. Counter-ions that a name gives are not always drawn. Like-named read-outs stand apart in the source and are kept apart here.

Assays:
mice = assay: Dark Avoidance Assay (SDDA), reversal of scopolamine induced memory deficit; type: in vivo; conditions: s.c., retest after 24 hours
Description: This utility can also be ascertained by determining the ability of these compounds to restore cholinergically deficient memory in the Dark Avoidance Assay. In this assay mice are tested for their ability to remember an unpleasant stimulus for a period of 24 hours. A mouse is placed in a chamber that contains a dark compartment; a strong incandescent light drives it to the dark compartment, where an electric shock is administered through metal plates on the floor. The animal is removed from the testing apparatus and tested again, 24 hours later, for the ability to remember the electric shock.
If scopolamine, an anticholinergic that is known to cause memory impairment, is administered before an animal's initial exposure to the test chamber, the animal re-enters the dark compartment shortly after being placed in the test chamber 24 hours later. This effect of scopolamine is blocked by an active test compounds, resulting in a greater interval before re-entry into the dark compartment.
The test results are expressed as the percent of a group of animals in which the effect of scopolamine is blocked, as manifested by an increased interval between being placed in the test chamber and reentering the dark compartment. Results of Dark Avoidance Assay for some of the compounds of this invention are presented in Table II along with a result for a reference compounds.

acetylcholinesterase = acetylcholinesterase (Homo sapiens, UniProt P22303); assay: Acetylcholinesterase Inhibition Assay (photometric method of Ellman et al.); type: biochemical
Chain of acetylcholinesterase (P22303 32-614): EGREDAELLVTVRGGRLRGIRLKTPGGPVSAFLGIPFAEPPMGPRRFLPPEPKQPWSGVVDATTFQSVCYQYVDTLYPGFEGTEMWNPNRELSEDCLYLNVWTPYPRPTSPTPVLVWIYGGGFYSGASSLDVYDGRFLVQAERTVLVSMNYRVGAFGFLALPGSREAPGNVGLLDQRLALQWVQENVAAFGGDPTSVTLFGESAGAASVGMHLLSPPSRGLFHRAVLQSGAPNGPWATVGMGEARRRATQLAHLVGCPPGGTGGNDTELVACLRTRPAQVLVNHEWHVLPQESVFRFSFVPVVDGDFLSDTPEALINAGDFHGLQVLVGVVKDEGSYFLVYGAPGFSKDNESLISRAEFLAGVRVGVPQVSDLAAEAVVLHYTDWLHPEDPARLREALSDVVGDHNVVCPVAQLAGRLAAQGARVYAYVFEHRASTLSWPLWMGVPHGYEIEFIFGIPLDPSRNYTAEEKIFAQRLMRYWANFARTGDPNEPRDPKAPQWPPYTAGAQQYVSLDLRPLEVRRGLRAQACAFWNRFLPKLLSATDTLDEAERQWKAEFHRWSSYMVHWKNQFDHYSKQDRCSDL

| Compound | Percent of Animals with Scopolamine Induced Memory Deficit Reversal (mice; 0.10 mg/kg) | other results |
| --- | --- | --- |
| CC(C)OC(=O)OC1C=CC23CCN(C)Cc4ccc(OC(=O)C(C)(C)C)c(c42)OC3C1.Cl.O (stereo not drawn) [6-O-Demethyl-3-O-(2-propoxy-carbonyl)-6-O-(t-butylcarbonyl)-galanthamine hydrochloride hydrate] | 53% of Animals | – |
| CC(C)OC(=O)Oc1ccc2c3c1O[C@H]1C[C@@H](O)C=C[C@@]31CCN(C)C2 [6-O-Demethyl-6-O-(2-propoxycarbonyl)galanthamine] | – | pIC50 (acetylcholinesterase): 5.79 |
| CN1CC[C@@]23C=C[C@H](O)C[C@@H]2Oc2c(OC(=O)C(C)(C)C)ccc(c23)C1 [6-O-Demethyl-6-O-(trimethylacetyl)-galanthamine] | 53% of Animals | – |
| CN1CC[C@@]23C=C[C@H](O)C[C@@H]2Oc2c(OC(=O)C(C)(C)C)ccc(c23)C1 [Example 3, 6-O-Demethyl-6-O-(t-butylcarbonyl)galanthamine hydrochloride] | – | pIC50 (acetylcholinesterase; photometric method of Ellman et al., read-out: IC50 CHE I): 5.57 |
| CC(C)OC(=O)Oc1ccc2c3c1O[C@H]1C[C@@H](O)C=C[C@@]31CCN(C)C2 [Example 9, 6-O-Demethyl-6-O-(prop-2-yl-oxycarbonyl)galanthamine hydrochloride] | 33% of Animals | – |
| Nc1c2c(nc3ccccc13)CCCC2 [Tacrine, reference compound] | – | Percent of Animals with Scopolamine Induced Memory Deficit Reversal (mice; 0.31 mg/kg): 33% of Animals |
